These results are taken from patent US20150352108A1, “AMINO-PYRIMIDINE COMPOUNDS AS INHIBITORS OF TBK1 AND/OR IKK EPSILON” (Alzheimer's Institute of America, priority 2009, published 2015).

Read-outs that look alike come from different tables or passages of the source.

Test [1] concerns the target T1, IKKε (Homo sapiens, UniProt Q14164).
T1 construct: His-tag; made in house; host or cells: Sf9 insect cells
T1 sequence (Q14164 1-716): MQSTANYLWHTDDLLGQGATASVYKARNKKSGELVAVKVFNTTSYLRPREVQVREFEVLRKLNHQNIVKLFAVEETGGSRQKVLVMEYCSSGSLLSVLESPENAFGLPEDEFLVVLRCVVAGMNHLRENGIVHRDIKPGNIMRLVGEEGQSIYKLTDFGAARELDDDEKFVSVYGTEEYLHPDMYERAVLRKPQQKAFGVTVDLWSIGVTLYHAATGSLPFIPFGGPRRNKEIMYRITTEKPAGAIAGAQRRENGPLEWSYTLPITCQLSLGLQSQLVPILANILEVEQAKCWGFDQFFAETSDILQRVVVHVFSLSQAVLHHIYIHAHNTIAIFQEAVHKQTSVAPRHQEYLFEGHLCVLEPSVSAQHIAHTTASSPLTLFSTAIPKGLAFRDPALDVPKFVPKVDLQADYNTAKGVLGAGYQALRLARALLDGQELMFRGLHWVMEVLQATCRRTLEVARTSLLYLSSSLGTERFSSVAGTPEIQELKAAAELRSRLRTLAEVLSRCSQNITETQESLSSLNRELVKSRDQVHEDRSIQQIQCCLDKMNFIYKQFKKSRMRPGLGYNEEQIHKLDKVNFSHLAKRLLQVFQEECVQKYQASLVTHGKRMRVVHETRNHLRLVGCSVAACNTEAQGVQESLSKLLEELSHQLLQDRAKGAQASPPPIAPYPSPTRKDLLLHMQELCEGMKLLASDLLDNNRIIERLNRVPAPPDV
As to the kind of experiment: In-vitro IKKε kinase assay ([γ33]ATP filter-plate). In kind it is biochemical. In outline:
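Phosphorylation of casein or myelin basic protein was counted by P-81 filter capture after 30-45 min reactions stopped with phosphoric acid, with counts normalized to DMSO after background subtraction. ATP was twice Km: 60 μM for TBK1 and 32 μM for IKKε, plus [γ33]ATP. Sf9-expressed His-tag enzymes were used at normal/sensitized levels of 0.1/0.02 μg/ml (TBK1) and 0.1/0.015 μg/ml (IKKε).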

In test [2] the target is T2, TBK1 (Homo sapiens, UniProt Q9UHD2).
T2 construct: His-tag; made in house; host or cells: Sf9 insect cells
T2 sequence (Q9UHD2 1-729): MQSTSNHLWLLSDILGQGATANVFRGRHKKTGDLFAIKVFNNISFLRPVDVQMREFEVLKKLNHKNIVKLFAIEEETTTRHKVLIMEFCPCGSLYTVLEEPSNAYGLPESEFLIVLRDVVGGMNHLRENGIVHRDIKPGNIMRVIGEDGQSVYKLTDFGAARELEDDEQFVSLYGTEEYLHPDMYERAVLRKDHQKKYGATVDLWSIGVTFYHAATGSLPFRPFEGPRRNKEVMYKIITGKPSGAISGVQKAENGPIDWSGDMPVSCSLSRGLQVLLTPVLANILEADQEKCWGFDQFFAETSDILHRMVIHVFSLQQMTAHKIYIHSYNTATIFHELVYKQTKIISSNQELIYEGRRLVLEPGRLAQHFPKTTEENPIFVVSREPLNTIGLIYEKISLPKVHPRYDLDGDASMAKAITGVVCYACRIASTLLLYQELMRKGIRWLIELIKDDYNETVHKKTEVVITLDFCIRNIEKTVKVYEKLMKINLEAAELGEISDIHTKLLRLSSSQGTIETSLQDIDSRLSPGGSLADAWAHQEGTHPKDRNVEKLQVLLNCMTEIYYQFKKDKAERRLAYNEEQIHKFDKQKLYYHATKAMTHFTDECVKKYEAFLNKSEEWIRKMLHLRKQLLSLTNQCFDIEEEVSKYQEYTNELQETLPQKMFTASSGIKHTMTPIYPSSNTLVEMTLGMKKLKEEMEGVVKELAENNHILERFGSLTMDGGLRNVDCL
Put plainly: In-vitro TBK1 kinase assay ([γ33]ATP filter-plate). In kind it is biochemical. As to the method: IKKε enzyme was produced as a His-tag fusion in Sf9 cells and used at a final concentration of […]. TBK1 enzyme was produced as a His-tag fusion in Sf9 cells and used at a final concentration of 0.1 μg/ml. Kinase reactions were carried out in reaction buffer using myelin basic protein (Millipore, Ballerica, Mass.) or casein (Sigma, St. Louis, Mo.) as substrate at an ATP concentration equal to twice the Km,ATP value for each enzyme, corresponding to 32 μM ATP for IKKε and 60 μM ATP for TBK1, in the presence of 0.3 μCi [γ^33]ATP (PerkinElmer, Waltham, Mass.). Final enzyme concentrations were 0.1 or 0.015 μg/ml (IKKε) and 0.1 or 0.02 μg/ml (TBK1), representing “normal” and “sensitized” assay conditions respectively. Test compounds (or DMSO solvent as a control) were added prior to initiation of the reactions. Reactions were terminated after 30-45 minutes by adding 3% phosphoric acid. Terminated reactions were transferred to P-81 cellulose phosphate filterplates (Whatman, Inc., Piscataway, N.J.) and washed with 1% phosphoric acid on a vacuum apparatus. After air drying, scintillant (PerkinElmer, Waltham, Mass.) was added and the plates were read on a PerkinElmer TopCount NXT instrument. Counts were normalized to DMSO controls after background subtraction.

[3] abbreviates: text bins, read-out: IC50 for inhibition of the kinase activity of IKKε.
Setting [4] is: text bins, read-out: IC50 for inhibition of the kinase activity of TBK1.

As for `COc1cc(Nc2nccc(-c3ccc(OC4CCN(C(C)=O)CC4)c(C#N)c3)n2)cc(OC)c1OC` [Example 34, 2-[(1-acetylpiperidin-4-yl)oxy]-5-{2-[(3,4,5-trimethoxyphenyl)amino]pyrimidin-4-yl}benzonitrile], the IC50 is less than 5 nM in test [1] (setting [3]) and less than 10 nM in test [2] (setting [4]).

Take `COc1ccc(-c2ccnc(Nc3ccc(N4CCN(C(C)C)C(=O)C4)c(OC)c3)n2)cc1C#N` [Example 38, 2-Methoxy-5-[2-({3-methoxy-4-[3-oxo-4-(propan-2-yl)piperazin-1-yl]phenyl}amino)pyrimidin-4-yl]benzonitrile]: the IC50 in test [1] (setting [3]) was 5 to 50 nM; in test [2] (setting [4]), less than 10 nM.

As for `COc1ccc(-c2ccnc(Nc3ccc(CN(C)C)cc3)n2)cc1C#N` [Example 45, 5-[2-({4-[(Dimethylamino)methyl]phenyl}amino)pyrimidin-4-yl]-2-methoxybenzonitrile], the IC50 in test [1] (setting [3]) lay within 50 to 500 nM; in test [2] (setting [4]), 10 to 100 nM.

Turning to `COc1ccc(-c2ccnc(Nc3ccc(OC)c(OC)c3)n2)cc1C#N` [Example 48, 5-{2-[(3,4-Dimethoxyphenyl)amino]pyrimidin-4-yl}-2-methoxybenzonitrile], the 50% inhibitory concentration (IC50) in test [1] (setting [3]) lay within 5 to 50 nM; in test [2] (setting [4]), 10 to 100 nM.

As to `N#Cc1cc(-c2ccnc(Nc3ccc(N4CCOCC4)cc3)n2)ccc1OC1CCN(CCO)CC1` [Example 49, 2-{[1-(2-Hydroxyethyl)piperidin-4-yl]oxy}-5-(2-{[4-(morpholin-4-yl)phenyl]amino}pyrimidin-4-yl)benzonitrile], the results for the IC50 in test [1] (setting [3]) and in test [2] (setting [4]) were 5 to 50 nM and less than 10 nM, respectively.

As for `N#Cc1cc(-c2ccnc(Nc3ccc(N4CCOCC4)cc3)n2)ccc1NC(=O)C1CCCCC1` [Example 54, N-[2-cyano-4-(2-{[4-(morpholin-4-yl)phenyl]amino}pyrimidin-4-yl)phenyl] cyclohexane-carboxamide], the IC50 in test [1] (setting [3]) was 5 to 50 nM; in test [2] (setting [4]), 10 to 100 nM.

For the compound `N#Cc1cccc(-c2ccnc(Nc3ccc(N)cc3)n2)c1` [Example 55, 3-{2-[(4-Aminophenyl)amino]pyrimidin-4-yl}benzonitrile], the IC50 in test [1] (setting [3]) was in the range of 50 to 500 nM; in test [2] (setting [4]), 100 to 500 nM.

Consider `CC(C)NC(=O)Nc1ccc(-c2ccnc(Nc3ccc(N4CCOCC4)cc3)n2)cc1C#N` [Example 60, 1-[2-cyano-4-(2-{[4-(morpholin-4-yl)phenyl]amino}pyrimidin-4-yl)phenyl]-3-propan-2-ylurea], for which the IC50 in test [1] (setting [3]) was 5 to 50 nM; in test [2] (setting [4]) it was 10 to 100 nM.

Take `COC(=O)C(C)Oc1ccc(-c2ccnc(Nc3ccc(N4CCOCC4)cc3)n2)cc1C#N` (stereo not drawn) [Example 63, Methyl 2-[2-cyano-4-(2-{[4-(morpholin-4-yl)phenyl]amino}pyrimidin-4-yl)phenoxy] propanoate]: the IC50 was in the range of 5 to 50 nM in test [1] (setting [3]) and 10 to 100 nM in test [2] (setting [4]).

Turning to `COc1ccc(-c2ccnc(Nc3ccc(N4CCC(N5CCN(C)CC5)CC4)c(OC)c3)n2)cc1C#N` [Example 65, 2-Methoxy-5-[2-({3-methoxy-4-[4-(4-methylpiperazin-1-yl)piperidin-1-yl]phenyl}amino)pyrimidin-4-yl]benzonitrile], the IC50 was 5 to 50 nM in test [1] (setting [3]) and less than 10 nM in test [2] (setting [4]).

Consider `COc1ccc(-c2ccnc(Nc3cccc(CN(C)CC(=O)N(C)C)c3)n2)cc1C#N` [Example 67, N~2~-(3-{[4-(3-Cyano-4-methoxyphenyl)pyrimidin-2-yl]amino}benzyl)-N,N,N~2~- trimethylglycinamide], for which the IC50 in test [1] (setting [3]) is 5 to 50 nM; in test [2] (setting [4]), 10 to 100 nM.

On to `COc1ccc(-c2ccnc(Nc3ccc(N(C)CC(=O)N(C)C)c(OC)c3)n2)cc1C#N` [Example 68, N~2~-(4-{[4-(3-Cyano-4-methoxyphenyl)pyrimidin-2-yl]amino}-2-methoxyphenyl)-N,N,N~2~- trimethylglycinamide], for which the IC50 was less than 5 nM in test [1] (setting [3]) and less than 10 nM in test [2] (setting [4]).

Turning to `COc1ccc(-c2ccnc(Nc3cccc(NC(C)=O)c3)n2)cc1C#N` [Example 70, N-(3-{[4-(3-Cyano-4-methoxyphenyl)pyrimidin-2-yl]amino}phenyl) acetamide], the IC50 was 5 to 50 nM in test [1] (setting [3]) and 10 to 100 nM in test [2] (setting [4]).

For `COc1ccc(-c2ccnc(Nc3ccc(N4CCNC(=O)C4)cc3)n2)cc1C#N` [Example 71, 2-Methoxy-5-(2-{[4-(3-oxopiperazin-1-yl)phenyl]amino}pyrimidin-4-yl)benzonitrile], the values for the IC50 in test [1] (setting [3]) and in test [2] (setting [4]) were 5 to 50 nM and 10 to 100 nM, respectively.

In the case of `CS(=O)(=O)N1CCC(COc2ccc(-c3ccnc(Nc4ccc(N5CCOCC5)cc4)n3)cc2C#N)CC1` [Example 76, 2-{[1-(methylsulfonyl)piperidin-4-yl]methoxy}-5-(2-{[4-(morpholin-4-yl)phenyl]amino}pyrimidin-4-yl)benzonitrile], the IC50 is less than 5 nM in test [1] (setting [3]) and less than 10 nM in test [2] (setting [4]).

With `COc1cc(Nc2nccc(-c3ccc(OC4CCN(S(C)(=O)=O)CC4)c(C#N)c3)n2)ccc1N1CCOCC1` [Example 79, 5-(2-{[3-methoxy-4-(morpholin-4-yl)phenyl]amino}pyrimidin-4-yl)-2-{[1-(methylsulfonyl)piperidin-4-yl]oxy}benzonitrile], the values for the IC50 in test [1] (setting [3]) and in test [2] (setting [4]) were 5 to 50 nM and 10 to 100 nM, respectively.

With `N#Cc1cc(-c2ccnc(Nc3ccc(N4CCOCC4)cc3)n2)ccc1OC1CCN(S(N)(=O)=O)CC1` [Example 80, 4-[2-cyano-4-(2-{[4-(morpholin-4-yl)phenyl]amino}pyrimidin-4-yl)phenoxy]piperidine-1-sulfonamide], the IC50 is 0.8 nM in test [1] (Table 3, read-out: IKKε IC50); less than 5 nM in test [1] (setting [3]); 0.4 nM in test [2] (Table 3, read-out: TBK1 IC50); less than 10 nM in test [2] (setting [4]).

In the case of `CN(C)C(=O)CN(C)c1ccc(Nc2nccc(-c3ccc(OC4CCOCC4)c(C#N)c3)n2)cc1` [Example 82, N~2~-[4-({4-[3-cyano-4-(tetrahydro-2H-pyran-4-yloxy)phenyl]pyrimidin-2-yl}amino)phenyl]-N,N,N~2~- trimethylglycinamide], the IC50 was less than 5 nM in test [1] (setting [3]) and less than 10 nM in test [2] (setting [4]).

As for `COc1ccc(Nc2nccc(-c3ccc(C)c(C#N)c3)n2)cc1OC` [Example 85, 5-{2-[(3,4-Dimethoxyphenyl)amino]pyrimidin-4-yl}-2-methylbenzonitrile], the IC50 in test [1] (setting [3]) was in the range of 5 to 50 nM; in test [2] (setting [4]), 10 to 100 nM.

For `CC(=O)N1CCC(Oc2ccc(-c3ccnc(Nc4ccc(N5CCOCC5)cc4)n3)cc2C#N)CC1` [Example 86, 2-[(1-Acetylpiperidin-4-yl)oxy]-5-(2-{[4-(morpholin-4-yl)phenyl]amino}pyrimidin-4-yl)benzonitrile], the IC50 in test [1] (setting [3]) is 5 to 50 nM; in test [2] (setting [4]), 10 to 100 nM.

As usually defined, the IC50 is the concentration at which inhibition is half-maximal.
